Test results as given in publication PMC4843002, “Identification of pyrazolopyridazinones as PDEδ inhibitors” (Nature Communications, 2016).

How the values were obtained:
CysLT1 (LTD4) (h) = molecular target: T1, CysLT1 (LTD4) (h) (Homo sapiens, UniProt Q9Y271); assay: Cerep binding, agonist radioligand; conditions: read-out: % Inhibition of Control Specific Binding
T1 construct: purchased Eurofins Pharma Discovery Services (CEREP diversity panel)

GABA (non-selective) = assay: Cerep binding, agonist radioligand; conditions: 5 µM
GABA transporter = assay: Cerep binding, antagonist radioligand; conditions: 5 µM
GR (h) = molecular target: T2, GR (h) (Homo sapiens, UniProt P04150); assay: Cerep binding, agonist radioligand; conditions: read-out: % Inhibition of Control Specific Binding
T2 construct: purchased Eurofins Pharma Discovery Services (CEREP diversity panel)
T2 sequence (P04150 whole entry): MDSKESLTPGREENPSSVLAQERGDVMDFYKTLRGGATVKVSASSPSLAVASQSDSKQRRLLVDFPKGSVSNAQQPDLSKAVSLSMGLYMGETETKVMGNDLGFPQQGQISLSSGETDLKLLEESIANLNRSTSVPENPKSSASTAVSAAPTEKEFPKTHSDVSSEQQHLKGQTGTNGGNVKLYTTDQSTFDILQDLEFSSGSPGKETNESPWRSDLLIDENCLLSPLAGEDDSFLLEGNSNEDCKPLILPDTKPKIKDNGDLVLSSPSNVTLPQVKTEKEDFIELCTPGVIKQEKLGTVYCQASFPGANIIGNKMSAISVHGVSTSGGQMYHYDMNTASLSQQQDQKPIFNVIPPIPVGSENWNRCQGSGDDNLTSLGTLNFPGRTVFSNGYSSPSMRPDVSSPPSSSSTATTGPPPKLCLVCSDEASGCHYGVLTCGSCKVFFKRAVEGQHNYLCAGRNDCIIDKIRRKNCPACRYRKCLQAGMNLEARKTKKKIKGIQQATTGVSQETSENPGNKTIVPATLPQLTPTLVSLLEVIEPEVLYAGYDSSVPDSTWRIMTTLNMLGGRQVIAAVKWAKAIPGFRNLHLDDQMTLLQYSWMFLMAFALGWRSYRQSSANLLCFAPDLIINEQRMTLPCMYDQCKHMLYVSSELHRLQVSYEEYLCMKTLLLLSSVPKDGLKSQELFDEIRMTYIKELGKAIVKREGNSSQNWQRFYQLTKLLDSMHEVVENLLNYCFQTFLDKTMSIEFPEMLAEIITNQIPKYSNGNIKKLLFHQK

P2X = assay: Cerep binding, agonist radioligand; conditions: 5 µM
beta 1 (h) = molecular target: T3, beta 1 (h) (Homo sapiens, UniProt P08588); assay: Cerep binding, agonist radioligand; conditions: read-out: % Inhibition of Control Specific Binding
T3 construct: purchased Eurofins Pharma Discovery Services (CEREP diversity panel)

CCK2 (CCKB) (h) = molecular target: T4, CCK2 (CCKB) (h) (Homo sapiens, UniProt P32239); assay: Cerep binding, agonist radioligand; conditions: read-out: % Inhibition of Control Specific Binding
T4 construct: purchased Eurofins Pharma Discovery Services (CEREP diversity panel)

[1] = system: Ca2+ channel (L, dihydropyridine site); assay: Cerep binding, antagonist radioligand; conditions: 5 µM
B2 (h) = molecular target: T5, B2 (h) (Homo sapiens, UniProt P30411); assay: Cerep binding, agonist radioligand; conditions: read-out: % Inhibition of Control Specific Binding
T5 construct: purchased Eurofins Pharma Discovery Services (CEREP diversity panel)

PKCalpha (h) = molecular target: T6, PKCalpha (h) (Homo sapiens, UniProt P17252); assay: Cerep enzyme and cell-based assays; type: biochemical; conditions: read-out: % Inhibition of Control Values
T6 construct: Eurofins Pharma Discovery Services (CEREP diversity panel, outsourced assay)

D3 (h) = molecular target: T7, D3 (h) (Homo sapiens, UniProt P35462); assay: Cerep binding, antagonist radioligand; conditions: read-out: % Inhibition of Control Specific Binding
T7 construct: purchased Eurofins Pharma Discovery Services (CEREP diversity panel)
T7 sequence (P35462 whole entry): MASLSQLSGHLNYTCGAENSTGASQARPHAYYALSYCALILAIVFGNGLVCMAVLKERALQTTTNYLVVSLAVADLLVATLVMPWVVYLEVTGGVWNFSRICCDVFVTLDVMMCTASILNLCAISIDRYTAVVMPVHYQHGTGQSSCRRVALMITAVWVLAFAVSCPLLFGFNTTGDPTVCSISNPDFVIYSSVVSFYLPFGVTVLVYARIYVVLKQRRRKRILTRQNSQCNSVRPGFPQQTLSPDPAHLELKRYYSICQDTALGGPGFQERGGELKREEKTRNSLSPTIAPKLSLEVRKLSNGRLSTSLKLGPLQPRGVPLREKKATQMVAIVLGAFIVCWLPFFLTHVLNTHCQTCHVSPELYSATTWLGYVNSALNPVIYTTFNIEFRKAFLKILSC

A2A (h) = molecular target: T8, A2A (h) (Homo sapiens, UniProt P29274); assay: Cerep binding, agonist radioligand; conditions: read-out: % Inhibition of Control Specific Binding
T8 construct: purchased Eurofins Pharma Discovery Services (CEREP diversity panel)

kainate = assay: Cerep binding, agonist radioligand; conditions: 5 µM
D4.4 (h) = molecular target: T9, D4.4 (h) (Homo sapiens, UniProt P21917); assay: Cerep binding, antagonist radioligand; conditions: read-out: % Inhibition of Control Specific Binding
T9 construct: purchased Eurofins Pharma Discovery Services (CEREP diversity panel)

B1 (h) = molecular target: T10, B1 (h) (Homo sapiens, UniProt P46663); assay: Cerep binding, agonist radioligand; conditions: read-out: % Inhibition of Control Specific Binding
T10 construct: purchased Eurofins Pharma Discovery Services (CEREP diversity panel)
T10 sequence (P46663 whole entry): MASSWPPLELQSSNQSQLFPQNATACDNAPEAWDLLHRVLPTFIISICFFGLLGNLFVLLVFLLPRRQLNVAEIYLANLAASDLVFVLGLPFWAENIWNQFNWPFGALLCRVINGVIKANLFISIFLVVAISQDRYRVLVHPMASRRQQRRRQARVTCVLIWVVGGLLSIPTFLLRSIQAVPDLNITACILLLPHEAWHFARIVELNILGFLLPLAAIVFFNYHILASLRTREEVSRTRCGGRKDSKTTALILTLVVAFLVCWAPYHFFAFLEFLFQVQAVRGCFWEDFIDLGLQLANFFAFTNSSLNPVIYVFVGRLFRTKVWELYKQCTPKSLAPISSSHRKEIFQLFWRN

MT1 (ML1A) (h) = molecular target: T11, MT1 (ML1A) (h) (Homo sapiens, UniProt P48039); assay: Cerep binding, agonist radioligand; conditions: read-out: % Inhibition of Control Specific Binding
T11 construct: purchased Eurofins Pharma Discovery Services (CEREP diversity panel)

[2] = system: Ca2+ channel (L, verapamil site) (phenylalkylamine); assay: Cerep binding, antagonist radioligand; conditions: 5 µM
NK3 (h) = molecular target: T12, NK3 (h) (Homo sapiens, UniProt P29371); assay: Cerep binding, antagonist radioligand; conditions: read-out: % Inhibition of Control Specific Binding
T12 construct: purchased Eurofins Pharma Discovery Services (CEREP diversity panel)

PDE3A (h) = molecular target: T13, PDE3A (h) (Homo sapiens, UniProt Q14432); assay: Cerep enzyme and cell-based assays; type: biochemical; conditions: read-out: % Inhibition of Control Values
T13 construct: Eurofins Pharma Discovery Services (CEREP diversity panel, outsourced assay)
T13 sequence (Q14432 whole entry): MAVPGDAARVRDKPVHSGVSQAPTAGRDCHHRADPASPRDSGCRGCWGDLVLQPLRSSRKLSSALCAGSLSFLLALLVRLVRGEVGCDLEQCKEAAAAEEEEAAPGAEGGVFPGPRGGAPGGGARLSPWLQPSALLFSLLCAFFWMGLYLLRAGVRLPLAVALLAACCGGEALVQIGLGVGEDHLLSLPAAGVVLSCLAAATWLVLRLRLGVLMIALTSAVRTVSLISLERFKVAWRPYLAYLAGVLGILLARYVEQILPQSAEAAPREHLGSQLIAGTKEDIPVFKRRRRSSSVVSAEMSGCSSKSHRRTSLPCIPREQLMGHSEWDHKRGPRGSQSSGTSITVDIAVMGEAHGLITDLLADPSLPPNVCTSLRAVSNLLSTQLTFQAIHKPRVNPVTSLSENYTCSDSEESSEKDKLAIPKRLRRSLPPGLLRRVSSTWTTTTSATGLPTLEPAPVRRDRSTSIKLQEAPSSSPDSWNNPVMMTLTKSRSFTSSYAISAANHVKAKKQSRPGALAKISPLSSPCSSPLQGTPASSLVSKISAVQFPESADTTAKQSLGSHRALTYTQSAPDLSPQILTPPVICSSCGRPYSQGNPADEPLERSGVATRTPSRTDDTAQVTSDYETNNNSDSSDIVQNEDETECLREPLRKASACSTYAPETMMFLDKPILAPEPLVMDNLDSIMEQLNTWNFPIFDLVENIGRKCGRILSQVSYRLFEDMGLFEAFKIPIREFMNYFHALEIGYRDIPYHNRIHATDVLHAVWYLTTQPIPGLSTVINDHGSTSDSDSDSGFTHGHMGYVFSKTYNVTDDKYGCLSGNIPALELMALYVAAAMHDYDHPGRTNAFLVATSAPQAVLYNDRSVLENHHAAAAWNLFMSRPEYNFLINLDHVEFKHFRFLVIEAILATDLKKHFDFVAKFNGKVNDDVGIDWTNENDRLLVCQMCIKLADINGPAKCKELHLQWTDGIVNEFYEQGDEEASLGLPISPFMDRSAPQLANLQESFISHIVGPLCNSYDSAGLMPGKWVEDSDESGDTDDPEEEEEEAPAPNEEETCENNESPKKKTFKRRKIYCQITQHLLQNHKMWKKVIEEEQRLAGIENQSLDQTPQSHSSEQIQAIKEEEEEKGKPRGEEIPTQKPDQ

5-HT (non-selective) = assay: Cerep binding, agonist radioligand; conditions: 5 µM
BxPC-3 cells = type: cell-based
Protocol: (§1) RTCA was performed using 16-well E-plates on the Dual Plate xCELLigence instrument (Roche Applied Science, Indianapolis, IN). This system measures a dimensionless parameter called cell index, which evaluates the ionic environment at an electrode/solution interface and integrates information on cell number. Depending on the cell line 5 × 10^3–1 × 10^4 cells were plated in each well of the 16-well plates in 200 μl of cell culture medium. After seeding, cells were allowed to settle for 30 min at room temperature before being inserted into the xCELLigence instrument in a humidified incubator at 37 °C with 10% CO2. For RTCA experiments assaying cells stably expressing the inducible shRNA transgene, cells were seeded onto the E-plates in medium supplemented with 200 ng ml^−1 doxycycline. For RTCA experiments, the cells were treated with Deltarasin or Deltazinone 1 after reaching a steady growth (24 h/48 h). The small-molecule inhibitors were added at indicated time points and in the indicated concentrations. […] Continuous impedance measurements were then monitored every 15 min for up to 200 h. All assays were performed in duplicates. The cell index was normalized to 1 at the time point of drug administration. […]

PANC-1 cells = type: cell-based
Protocol: as §1

SKCa channel = assay: Cerep binding, antagonist radioligand; conditions: 5 µM
Y (non-selective) = assay: Cerep binding, agonist radioligand; conditions: 5 µM
EP2 (h) = molecular target: T14, EP2 (h) (Homo sapiens, UniProt P43116); assay: Cerep binding, agonist radioligand; conditions: read-out: % Inhibition of Control Specific Binding
T14 construct: purchased Eurofins Pharma Discovery Services (CEREP diversity panel)

[3] = system: guanylyl cyclase (h) (activator effect); assay: Cerep enzyme and cell-based assays; type: biochemical, human; conditions: 5 µM
Na+ channel (site 2) = assay: Cerep binding, antagonist radioligand; conditions: 5 µM
S6P phosphorylation = assay: western blot, S6P phosphorylation in PANC-1
Protocol: To examine whether PDEδ inhibition by Deltarasin and Deltazinone 1 downregulates the signal transduction via these pathways, we examined the phosphorylation of extracellular signal regulated kinase (Erk) and S6 Ribosomal Protein (S6P) in the oncogenic KRas-dependent Panc-Tu-1 and KRas-independent PANC-1 cells. […] Cells were lysed with RIPA-buffer (20 mM Tris pH 7.5, 150 mM NaCl, 0.5 mM Na2 EDTA, 1 % sodium deoxycholate, 0.1% sodium dodecyl sulfate, 1% IGEPAL supplemented with Complete Mini EDTA-free protease inhibitor (Roche Applied Science) and 1% phosphatase inhibitor cocktail 2 and 3 (P5726 and P0044, Sigma Aldrich), scraped off after 5 min on ice and centrifuged at 14,000g for 20 min at 4 °C. SDS–polyacrylamide gel electrophoresis was carried out with 10–25 μg of whole-cell lysate from each sample. The gels were blotted onto polyvinylidene difluoride membrane (Millipore) and blocked for 1 h at room temperature. […] Blots were scanned on a LI-COR Odyssey imaging system.
Western blots were quantified using ImageJ. The background of the blots was subtracted by applying the rolling ball subtraction with a radius of 50 pixels. Afterwards the integrated intensity of the bands was measured.

[4] = molecular target: choline transporter (CHT1) (h) (Homo sapiens, UniProt Q9GZV3); assay: Cerep binding, antagonist radioligand; conditions: read-out: % Inhibition of Control Specific Binding
PCP = assay: Cerep binding, antagonist radioligand; conditions: 5 µM
CB1 (h) = molecular target: T15, CB1 (h) (Homo sapiens, UniProt P21554); assay: Cerep binding, agonist radioligand; conditions: read-out: % Inhibition of Control Specific Binding
T15 construct: purchased Eurofins Pharma Discovery Services (CEREP diversity panel)
T15 sequence (P21554 whole entry): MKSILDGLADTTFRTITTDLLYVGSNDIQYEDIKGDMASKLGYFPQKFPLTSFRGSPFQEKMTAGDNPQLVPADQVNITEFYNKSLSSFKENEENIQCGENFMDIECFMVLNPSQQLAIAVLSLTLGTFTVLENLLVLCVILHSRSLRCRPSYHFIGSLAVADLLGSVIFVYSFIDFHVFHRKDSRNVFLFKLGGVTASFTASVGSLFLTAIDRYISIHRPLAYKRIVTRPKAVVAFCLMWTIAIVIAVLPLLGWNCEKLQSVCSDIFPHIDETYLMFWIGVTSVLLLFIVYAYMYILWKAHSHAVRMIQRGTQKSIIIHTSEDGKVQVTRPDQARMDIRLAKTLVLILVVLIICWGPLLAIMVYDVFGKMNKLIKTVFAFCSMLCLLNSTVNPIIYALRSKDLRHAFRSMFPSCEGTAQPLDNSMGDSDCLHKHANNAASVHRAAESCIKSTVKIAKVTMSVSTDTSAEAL

D2S (h) = molecular target: T16, D2S (h) (Homo sapiens, UniProt P14416); assay: Cerep binding, antagonist radioligand; conditions: read-out: % Inhibition of Control Specific Binding
T16 construct: purchased Eurofins Pharma Discovery Services (CEREP diversity panel)

CRF1 (h) = molecular target: T17, CRF1 (h) (Homo sapiens, UniProt P34998); assay: Cerep binding, agonist radioligand; conditions: read-out: % Inhibition of Control Specific Binding
T17 construct: purchased Eurofins Pharma Discovery Services (CEREP diversity panel)
T17 sequence (P34998 24-415): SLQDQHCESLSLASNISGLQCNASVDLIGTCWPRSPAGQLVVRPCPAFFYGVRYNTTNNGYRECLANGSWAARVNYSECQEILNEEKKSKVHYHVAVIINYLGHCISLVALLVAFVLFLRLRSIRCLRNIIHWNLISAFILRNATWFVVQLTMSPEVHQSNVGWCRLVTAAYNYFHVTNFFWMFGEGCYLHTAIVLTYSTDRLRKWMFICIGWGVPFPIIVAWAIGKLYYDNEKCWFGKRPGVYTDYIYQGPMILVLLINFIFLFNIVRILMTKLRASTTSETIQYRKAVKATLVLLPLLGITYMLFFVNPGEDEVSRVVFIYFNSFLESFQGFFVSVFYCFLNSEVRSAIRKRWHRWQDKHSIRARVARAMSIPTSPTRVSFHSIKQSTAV

V2 (h) = molecular target: T18, V2 (h) (Homo sapiens, UniProt P30518); assay: Cerep binding, agonist radioligand; conditions: read-out: % Inhibition of Control Specific Binding
T18 construct: purchased Eurofins Pharma Discovery Services (CEREP diversity panel)

PDE5 (h) (non-selective) = molecular target: T19, PDE5 (h) (non-selective) (Homo sapiens, UniProt O76074); assay: Cerep enzyme and cell-based assays; type: biochemical; conditions: read-out: % Inhibition of Control Values
T19 construct: Eurofins Pharma Discovery Services (CEREP diversity panel, outsourced assay)

alpha 1 (non-selective) = assay: Cerep binding, antagonist radioligand; conditions: 5 µM
H3 (h) = molecular target: T20, H3 (h) (Homo sapiens, UniProt Q9Y5N1); assay: Cerep binding, agonist radioligand; conditions: read-out: % Inhibition of Control Specific Binding
T20 construct: purchased Eurofins Pharma Discovery Services (CEREP diversity panel)

A3 (h) = molecular target: T21, A3 (h) (Homo sapiens, UniProt P0DMS8); assay: Cerep binding, agonist radioligand; conditions: read-out: % Inhibition of Control Specific Binding
T21 construct: purchased Eurofins Pharma Discovery Services (CEREP diversity panel)

AT1 (h) = molecular target: T22, AT1 (h) (Homo sapiens, UniProt P30556); assay: Cerep binding, antagonist radioligand; conditions: read-out: % Inhibition of Control Specific Binding
T22 construct: purchased Eurofins Pharma Discovery Services (CEREP diversity panel)
T22 sequence (P30556 whole entry): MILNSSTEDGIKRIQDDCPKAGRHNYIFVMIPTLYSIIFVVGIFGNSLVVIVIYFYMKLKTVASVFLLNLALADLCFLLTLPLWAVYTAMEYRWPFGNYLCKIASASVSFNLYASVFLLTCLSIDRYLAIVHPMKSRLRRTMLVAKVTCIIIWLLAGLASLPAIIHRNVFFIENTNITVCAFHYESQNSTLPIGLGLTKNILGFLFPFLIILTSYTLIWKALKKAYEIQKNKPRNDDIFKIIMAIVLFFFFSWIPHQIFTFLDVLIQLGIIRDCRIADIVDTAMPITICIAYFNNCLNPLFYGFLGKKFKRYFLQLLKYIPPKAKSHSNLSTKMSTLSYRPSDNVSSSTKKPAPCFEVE

PDE4D2 (h) = molecular target: T23, PDE4D2 (h) (Homo sapiens, UniProt Q08499); assay: Cerep enzyme and cell-based assays; type: biochemical; conditions: read-out: % Inhibition of Control Values
T23 construct: Eurofins Pharma Discovery Services (CEREP diversity panel, outsourced assay)

T1 sequence (Q9Y271 whole entry): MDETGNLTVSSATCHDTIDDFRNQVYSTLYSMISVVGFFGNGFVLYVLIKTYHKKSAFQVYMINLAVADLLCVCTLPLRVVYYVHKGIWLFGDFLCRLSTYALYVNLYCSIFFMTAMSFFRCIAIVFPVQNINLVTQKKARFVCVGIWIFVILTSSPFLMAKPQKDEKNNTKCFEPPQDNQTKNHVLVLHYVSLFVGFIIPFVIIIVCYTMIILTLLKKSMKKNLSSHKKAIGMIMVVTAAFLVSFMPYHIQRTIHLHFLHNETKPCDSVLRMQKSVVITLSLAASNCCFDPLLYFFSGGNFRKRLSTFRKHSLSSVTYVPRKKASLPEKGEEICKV

In the case of `Cc1ccc(-n2nc3c(=O)n(CCCC(=O)NCC(C)c4ccccc4)nc(C)c3c2C)cc1` (centres unmarked) [2k], the inhibition at 5 µM (CysLT1 (LTD4) (h)) is reported as 0%, the “% Inhibition of Control Specific Binding” value (GABA (non-selective)) is reported as -7% and the “% Inhibition of Control Specific Binding” value (GABA transporter) is reported as -1%. The inhibition at 5 µM (GR (h)) was -9%, the “% Inhibition of Control Specific Binding” value (P2X) was 1% and the inhibition at 5 µM (beta 1 (h)) was -1%. For the same compound, the inhibition at 5 µM (CCK2 (CCKB) (h)) was -22%, the “% Inhibition of Control Specific Binding” value [1] was -2% and the inhibition at 5 µM (B2 (h)) was -5%. It also gave an inhibition at 5 µM (PKCalpha (h)) of 7%, an inhibition at 5 µM (D3 (h)) of 18% and an inhibition at 5 µM (A2A (h)) of -6%. The “% Inhibition of Control Specific Binding” value (kainate) was -6%, the inhibition at 5 µM (D4.4 (h)) was 2% and the inhibition at 5 µM (B1 (h)) was -4%. For the same compound, the inhibition at 5 µM (MT1 (ML1A) (h)) was 22%, the “% Inhibition of Control Specific Binding” value [2] was -23% and the inhibition at 5 µM (NK3 (h)) was 17%. The inhibition at 5 µM (PDE3A (h)) was 1%, the “% Inhibition of Control Specific Binding” value (5-HT (non-selective)) was -25% and the effect on growth (BxPC-3 cells; BxPC-3, doses up to 24 μM) was “little or no growth inhibitory effect”. For the same compound, the effect on growth (PANC-1 cells; PANC-1, doses up to 24 μM) was “little or no growth inhibitory effect”, the “% Inhibition of Control Specific Binding” value (SKCa channel) was 0% and the “% Inhibition of Control Specific Binding” value (Y (non-selective)) was -19%. The inhibition at 5 µM (EP2 (h)) was 6%, the “% Inhibition of Control Values” [3] was 3% and the “% Inhibition of Control Specific Binding” value (Na+ channel (site 2)) was 4%. The S6P phosphorylation (S6P phosphorylation; PANC-1, 20 μM, longer incubation times (>3 h)) was “remained unaffected”, the inhibition at 5 µM [4] was 18% and the “% Inhibition of Control Specific Binding” value (PCP) was -8%. The inhibition at 5 µM (CB1 (h)) was -12%, the inhibition at 5 µM (D2S (h)) was -1% and the inhibition at 5 µM (CRF1 (h)) was -43%. The inhibition at 5 µM (V2 (h)) was -4%, the inhibition at 5 µM (PDE5 (h) (non-selective)) was 3% and the “% Inhibition of Control Specific Binding” value (alpha 1 (non-selective)) was 4%. The inhibition at 5 µM (H3 (h)) was -10%, the inhibition at 5 µM (A3 (h)) was 59% and the inhibition at 5 µM (AT1 (h)) was 9%. The inhibition at 5 µM (PDE4D2 (h)) was 3%.

In the case of `c1ccc(Cn2c(-c3ccc(OC[C@H](C4CCNCC4)n4c(-c5ccccc5)nc5ccccc54)cc3)nc3ccccc32)cc1` [Deltarasin, reference compound], the inhibition at 5 µM (CysLT1 (LTD4) (h)) is reported as -5%, the “% Inhibition of Control Specific Binding” value (GABA (non-selective)) is reported as 14% and the “% Inhibition of Control Specific Binding” value (GABA transporter) is reported as 20%. The inhibition at 5 µM (GR (h)) was 40%, the “% Inhibition of Control Specific Binding” value (P2X) was 10% and the inhibition at 5 µM (beta 1 (h)) was 21%. For the same compound, the inhibition at 5 µM (CCK2 (CCKB) (h)) was 29%, the “% Inhibition of Control Specific Binding” value [1] was 87% and the inhibition at 5 µM (B2 (h)) was 10%. For the same compound, the inhibition at 5 µM (PKCalpha (h)) was 66%, the inhibition at 5 µM (D3 (h)) was 93% and the inhibition at 5 µM (A2A (h)) was 28%. For the same compound, the “% Inhibition of Control Specific Binding” value (kainate) was 14%, the inhibition at 5 µM (D4.4 (h)) was 0% and the inhibition at 5 µM (B1 (h)) was 3%. For the same compound, the inhibition at 5 µM (MT1 (ML1A) (h)) was 28%, the “% Inhibition of Control Specific Binding” value [2] was 54% and the inhibition at 5 µM (NK3 (h)) was 61%. For the same compound, the inhibition at 5 µM (PDE3A (h)) was 11%, the “% Inhibition of Control Specific Binding” value (5-HT (non-selective)) was -1% and the “concentration resulting in rapid cell death (unspecific cytotoxicity)” value (BxPC-3 cells; human) was “above 9 μM”. For the same compound, the “concentration resulting in rapid cell death (unspecific cytotoxicity)” value (PANC-1 cells; human) was “above 9 μM”, the “% Inhibition of Control Specific Binding” value (SKCa channel) was 3% and the “% Inhibition of Control Specific Binding” value (Y (non-selective)) was 10%. The inhibition at 5 µM (EP2 (h)) was 28%, the “% Inhibition of Control Values” [3] was 0% and the “% Inhibition of Control Specific Binding” value (Na+ channel (site 2)) was 83%. For the same compound, the “EGF-induced S6P phosphorylation” value (S6P phosphorylation; PANC-1, 1 h, 5 μM Deltarasin, 5 min EGF) was “reduced in both lines”, the inhibition at 5 µM [4] was 27% and the “% Inhibition of Control Specific Binding” value (PCP) was -6%. It also gave an inhibition at 5 µM (CB1 (h)) of 7%, an inhibition at 5 µM (D2S (h)) of 98% and an inhibition at 5 µM (CRF1 (h)) of 34%. For the same compound, the inhibition at 5 µM (V2 (h)) was 20%, the inhibition at 5 µM (PDE5 (h) (non-selective)) was 92% and the “% Inhibition of Control Specific Binding” value (alpha 1 (non-selective)) was 33%. For the same compound, the inhibition at 5 µM (H3 (h)) was -2%, the inhibition at 5 µM (A3 (h)) was 70% and the inhibition at 5 µM (AT1 (h)) was 41%. The inhibition at 5 µM (PDE4D2 (h)) was 7%.
